Source: PubChem BioAssay (NCI)
“And” between values parts separate entries of the source, which are not always exact repeats. Equal entries are not always repeated.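 Cells were grown in 96-well plates and exposed to each compound for 48 hours at five concentrations; endpoints were interpolated linearly between bracketing concentrations, or set to the highest concentration if not reached. GI50 is the concentration that inhibits growth by half. TGI denotes the concentration required for complete inhibition of growth.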

Tests used:
Test in all cases: NCI-60 cell line screen, 48 h
CAKI-1 renal = system: CAKI-1 renal
SK-OV-3 ovarian = system: SK-OV-3 ovarian
DU-145 prostate = system: DU-145 prostate
U251 CNS = system: U251 CNS
UACC-62 melanoma = system: UACC-62 melanoma
M14 melanoma = system: M14 melanoma
OVCAR-3 ovarian = system: OVCAR-3 ovarian
CCRF-CEM leukemia = system: CCRF-CEM leukemia
MALME-3M melanoma = system: MALME-3M melanoma
RPMI-8226 leukemia = system: RPMI-8226 leukemia

| Structure (SMILES) | TGI (CAKI-1 renal) [µM] | TGI (SK-OV-3 ovarian) [µM] | TGI (DU-145 prostate) [µM] | TGI (U251 CNS) [µM] | TGI (UACC-62 melanoma) [µM] | TGI (M14 melanoma) [µM] | TGI (OVCAR-3 ovarian) [µM] | TGI (CCRF-CEM leukemia) [µM] | TGI (MALME-3M melanoma) | TGI (RPMI-8226 leukemia) [µM] | GI50 (CAKI-1 renal) [µM] | GI50 (MALME-3M melanoma) [µM] | GI50 (SK-OV-3 ovarian) | GI50 (RPMI-8226 leukemia) | GI50 (DU-145 prostate) | GI50 (U251 CNS) | GI50 (UACC-62 melanoma) | GI50 (M14 melanoma) [µM] | GI50 (OVCAR-3 ovarian) | GI50 (CCRF-CEM leukemia) |
| --- | --- | --- | --- | --- | --- | --- | --- | --- | --- | --- | --- | --- | --- | --- | --- | --- | --- | --- | --- | --- |
| O=P1(O)c2ccccc2CSCc2ccccc21 | > 100 | > 100 | > 100 | > 100 | > 100 | > 100 | > 100 | > 100 | – | – | – | – | – | – | – | – | – | – | – | – |
| CCOc1ccc(N=C2NC(=O)C(CC(=O)Nc3ccc(Cl)cc3Cl)S2)cc1 (stereo not drawn) | > 100 | > 100 | – | > 100 | > 100 | > 100 | > 100 | > 100 | > 100 µM | > 100 | – | – | – | – | – | – | – | – | – | – |
| Nc1cc2c(c3ccccc13)C(CCl)CN2C(=O)c1cc2cc(NC(=O)c3cc4ccccc4o3)ccc2[nH]1 (stereo not drawn) | < 0.11 | 5.5 | 142 | – | 0.0206 | – | – | – | 0.00771 µM and < 0.11 µM | – | > 0.11 | > 0.11 | – | – | – | – | – | – | – | – |
| O=[N+]([O-])c1cccc(C=NC23CC4CC(CC(C4)C2)C3)c1 | > 100 | > 100 | – | > 100 | > 100 | > 100 | > 100 | > 100 | > 100 µM | – | – | – | – | – | – | – | – | – | – | – |
| COC(=O)CC12CC(NC(=O)c3csc([C@@H](C[C@H](C(C)C)N(C)C(=O)[C@@H](NC(=O)[C@H]4CCCCN4C)C(C)C)OC(C)=O)n3)(C1)C2 | – | > 33.3 | – | > 33.3 | > 33.3 | – | – | > 33.3 | – | > 33.3 | – | 0.00491 | 0.00439 µM and 0.0105 µM | 0.00351 µM and 0.0129 µM | 0.00352 µM and 0.00825 µM | 0.0036 µM and 0.013 µM | 0.00325 µM and 0.00622 µM | 0.00355 | 0.0029 µM and 0.00333 µM | 0.0036 µM and 0.00718 µM |
| CNC(=O)N(CCCC(NC(C)=O)C(=O)NCc1ccccc1)Cc1ccccc1 (stereo not drawn) | > 100 | > 100 | – | > 100 | > 100 | > 100 | > 100 | > 100 | > 100 µM | > 100 | – | – | – | – | – | – | – | – | – | – |
| COC(=O)CCC(=O)C(CC(=O)OC)C(=O)CCC(=O)NCCc1ccccc1 (stereo not drawn) | > 100 | > 100 | – | > 100 | > 100 | > 100 | > 100 | > 100 | > 100 µM | > 100 | – | – | – | – | – | – | – | – | – | – |
| c1ccc2c(CNCCCN3CCN(CCCNCc4cccc5ccccc45)CC3)cccc2c1 | 4.02 | 5.22 | – | 3.16 | 3.26 | 2.42 | 9.53 | 3 | 3.56 µM | – | – | – | – | – | – | – | – | – | – | – |
| Cc1ccc(NC(=O)CC2SC(=Nc3cccc(Cl)c3C)NC2=O)cc1 (stereo not drawn) | > 100 | > 100 | – | > 100 | > 100 | > 100 | > 100 | > 100 | > 100 µM | > 100 | – | – | – | – | – | – | – | – | – | – |
| N#CCC(=O)N/N=C(/C(=O)Nc1ccccc1)C1C(=O)N(c2ccccc2)N=C1N (stereo not drawn) | > 100 | > 100 | – | > 100 | > 100 | > 100 | > 100 | > 100 | > 100 µM | > 100 | – | – | – | – | – | – | – | – | – | – |
| CC12OC(C(=O)C13CC3)C1C(=O)c3cccc(O)c3C(=O)C12 (stereo not drawn) | 11.1 | > 75.3 | 56.2 | > 58.8 | 37.2 | 63.5 | 19.9 | – | 14 µM | > 100 | 3.43 | 5.31 | 22.9 µM | 2.22 µM | 15.3 µM | 8.29 µM | 5.23 µM | 24.6 | 2.49 µM | – |
| O=C(O)c1ccc(NCn2nc(-c3ccccc3O)oc2=S)cc1O | > 100 | – | – | > 100 | > 100 | > 100 | > 100 | – | – | – | > 100 | – | – | – | – | 78.1 µM | 39.8 µM | > 100 | > 100 µM | – |
| CN(CC(=O)O)S(=O)(=O)c1ccc(Cl)cc1 | > 100 | > 100 | – | > 100 | > 100 | > 100 | > 100 | > 100 | > 100 µM | > 100 | – | – | – | – | – | – | – | – | – | – |
| Cc1ccc(S(=O)OC2c3ccccc3Cc3ccccc32)cc1 (stereo not drawn) | 56.3 | 41.9 | – | 78.5 | 31.8 | 33.8 | 44.5 | – | 26.7 µM | > 100 | – | – | – | – | – | – | – | – | – | – |
| Cc1cc2c(=O)cc(-c3ccc(O)cc3)oc2c(C(=O)O)c1C | 69.2 | > 100 | – | > 100 | > 100 | > 100 | > 100 | > 100 | > 100 µM | > 100 | – | – | – | – | – | – | – | – | – | – |
| CC(=O)OC1C(COC(N)=O)OC(n2c(-c3ccc(C)cc3)cc(-c3ccccc3)c(C#N)c2=O)C(OC(C)=O)C1OC(C)=O (stereo not drawn) | > 100 | > 100 | – | > 100 | > 100 | > 100 | > 100 | > 100 | > 100 µM | > 100 | – | – | – | – | – | – | – | – | – | – |
| S=C1NC(c2ccccc2)=NC(Cc2ccccc2)(c2ccccc2)N1c1ccccc1 (stereo not drawn) | > 100 | – | – | – | > 100 | > 100 | > 100 | > 100 | > 100 µM | > 100 | – | – | – | – | – | – | – | – | – | – |
| CCOC(=O)c1sc(Nc2cc(Cl)ccc2Cl)nc1C | – | – | – | > 100 | – | – | > 100 | – | > 100 µM | > 100 | – | – | – | – | – | – | – | – | – | – |
| CO[C@@H]1[C@H](N(C)C(=O)c2ccccc2)C[C@@H]2O[C@]1(C)n1c3ccccc3c3c4c(c5c6ccccc6n2c5c31)C(=O)NC4=O | 2.66 | > 100 | > 100 | > 100 | > 100 | > 100 | > 100 | – | > 100 µM | > 100 | 0.232 | 0.732 | 1.67 µM | > 100 µM | 6.81 µM | 3.6 µM | 0.54 µM | 0.68 | 6.28 µM | – |
| OCC(O)COc1ccc(F)cc1 (stereo not drawn) | > 100 | > 100 | – | > 100 | > 100 | > 100 | > 100 | > 100 | > 100 µM | – | – | – | – | – | – | – | – | – | – | – |
| Cc1ccc(C)c(N2C(=O)C(=O)C(c3nc4ccccc4s3)C(=O)C2=O)c1 | > 100 | > 100 | – | > 100 | > 100 | > 100 | > 100 | > 100 | > 100 µM | > 100 | – | – | – | – | – | – | – | – | – | – |
| CC(=O)NS(=O)(=O)c1ccc(-n2nc(-c3ccccc3)cc2-c2cc(O)ccc2O)cc1 | > 100 | – | – | > 100 | > 100 | > 100 | > 100 | > 100 | – | > 100 | > 100 | – | – | > 100 µM | – | 61.6 µM | 62 µM | 31.4 | > 100 µM | > 100 µM |
